The source of these data is patent publication US10806795B2, “Bispecific anti-hapten/anti-blood brain barrier receptor antibodies, complexes thereof and their use as blood brain barrier shuttles” (Hoffmann-La Roche Inc., priority 2014, dated 2020).

Entries after “also recorded” stand apart in the source; their conditions may differ. Starred links: 1 amine or outer side, 2 acyl side, 3 side chain; linkers in the order of their positions; H or OH if unused. Non-standard residues stand in square brackets, D forms with d. No end group written: not given here. Pqa = (4-oxo-6-piperazin-1-yl-4H-quinazolin-3-yl)-acetic acid in the backbone, O=C(Cn1cnc2ccc(N3CCN([*:1])CC3)cc2c1=O)[*:2]; NMeR = CN[C@@H](CCCNC(=N)N)C(=O)O

The target in one series is NPY4R (Homo sapiens, UniProt P50391). Kind of series: Effect on the Y2Receptor family: NPY4R.
A further series concerns the target T1, NPY5R (Homo sapiens, UniProt Q15761).
T1 sequence (Q15761 1-445): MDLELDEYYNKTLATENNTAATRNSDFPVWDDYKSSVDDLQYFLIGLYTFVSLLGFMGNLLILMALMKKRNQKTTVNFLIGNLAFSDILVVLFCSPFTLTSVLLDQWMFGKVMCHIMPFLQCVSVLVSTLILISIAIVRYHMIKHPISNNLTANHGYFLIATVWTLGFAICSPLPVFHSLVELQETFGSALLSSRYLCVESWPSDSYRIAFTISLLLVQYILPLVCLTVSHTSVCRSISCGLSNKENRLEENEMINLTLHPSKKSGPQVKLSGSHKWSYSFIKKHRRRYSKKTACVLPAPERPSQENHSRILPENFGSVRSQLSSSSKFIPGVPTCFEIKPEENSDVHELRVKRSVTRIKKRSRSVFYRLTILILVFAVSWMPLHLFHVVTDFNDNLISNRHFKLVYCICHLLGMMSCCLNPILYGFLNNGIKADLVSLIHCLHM
Kind of series: Effect on the Y2Receptor family: NPY5R.

The target of series [1] is anti-helicar motif amino acid sequence antibody. Kind of series: Binding [Kd] of PYY peptides by anti-helicar motif amino acid sequence antibody.
Another series concerns the target T2, NPY2R (Homo sapiens, UniProt P49146).
T2 sequence (P49146 1-381): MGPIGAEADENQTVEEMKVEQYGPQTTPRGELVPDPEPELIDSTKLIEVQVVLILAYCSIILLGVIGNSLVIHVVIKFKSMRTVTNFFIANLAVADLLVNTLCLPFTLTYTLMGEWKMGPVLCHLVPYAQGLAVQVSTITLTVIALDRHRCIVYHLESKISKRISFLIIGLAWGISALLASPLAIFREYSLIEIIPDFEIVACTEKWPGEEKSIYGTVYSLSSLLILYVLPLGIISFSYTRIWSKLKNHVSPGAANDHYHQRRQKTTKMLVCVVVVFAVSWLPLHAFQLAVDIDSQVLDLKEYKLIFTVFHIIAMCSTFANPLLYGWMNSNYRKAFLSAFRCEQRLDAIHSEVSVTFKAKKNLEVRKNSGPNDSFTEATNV
Kind of series: Effect on the Y2Receptor family: NPY2R.

On the set-up of series [2]: species or system mice. The settings on record: mouse, in vivo. The source says:
The control group was not pre-injected with the anti-biotin antibody.

A further series deals with T3, NPY1R (Homo sapiens, UniProt P25929).
T3 sequence (P25929 1-384): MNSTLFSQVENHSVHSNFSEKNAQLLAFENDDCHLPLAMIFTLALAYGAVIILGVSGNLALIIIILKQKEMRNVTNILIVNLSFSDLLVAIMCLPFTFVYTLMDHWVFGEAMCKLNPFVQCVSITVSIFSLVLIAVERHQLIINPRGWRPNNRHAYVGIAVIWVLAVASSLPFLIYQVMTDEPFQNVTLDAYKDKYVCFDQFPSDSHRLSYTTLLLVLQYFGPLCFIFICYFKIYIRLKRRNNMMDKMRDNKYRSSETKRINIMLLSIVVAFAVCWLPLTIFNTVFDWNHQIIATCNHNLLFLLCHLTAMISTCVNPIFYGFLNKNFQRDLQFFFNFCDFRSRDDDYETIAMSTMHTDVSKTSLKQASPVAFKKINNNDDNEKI
Kind of series: Effect on the Y2Receptor family: NPY1R.

Series [3] can be described thus: Serum stability of digoxigenylated polypeptide, free or antibody-complexed (Western Blot-related assay of serum). The settings on record: 32.1 nmol, serum 0.08 h, 2 h, 4 h, 24 h, listed as non-complexed polypeptide. It is filed as in vivo, mice (strain NMRI). As to the method: Serum samples were stored at −80° C.
The determination of the amount of digoxigenylated peptide in the serum at the given time points was difficult compared to the detection of Dig-Cy5 as no direct means to detect the polypeptide in serum samples was available. Therefore, a Western Blot-related assay to detect digoxigenylated peptide in serum was established. In a first step, the serum samples were separated on reducing SDS-PAGE. Because sample preparation included exposure of the serum to high concentrations of SDS and reducing agents, complexed Dig-polypeptide conjugates can become released from the (completely denatured/unfolded) anti-digoxigenin antibody, whereas covalent conjugates remained bound. To mediate the release of the polypeptide from the non-covalent antibody complex and separate the individual components by SDS-PAGE, 2 μl of each serum sample was diluted in 18 μl 20 mM histidine/140 mM NaCl pH 6.0, mixed with 6.7 μl of 4×LDS sample buffer and 3 μl of 10× sample reducing agent (NuPAGE, Invitrogen) for 5 min at 95° C. As a control, 2 μl of serum of an untreated mouse of the same strain was used. […] Digoxigenylated polypeptides were subsequently detected on the membrane with an anti-digoxigenin antibody. […] Chemiluminescence was detected with the Lumilmager F1 (Roche) with an exposure time of 20 min.
For orientation: In western blotting, separated proteins are transferred to a membrane and probed.

NPY4R, sequence (P50391 whole entry, species assumed): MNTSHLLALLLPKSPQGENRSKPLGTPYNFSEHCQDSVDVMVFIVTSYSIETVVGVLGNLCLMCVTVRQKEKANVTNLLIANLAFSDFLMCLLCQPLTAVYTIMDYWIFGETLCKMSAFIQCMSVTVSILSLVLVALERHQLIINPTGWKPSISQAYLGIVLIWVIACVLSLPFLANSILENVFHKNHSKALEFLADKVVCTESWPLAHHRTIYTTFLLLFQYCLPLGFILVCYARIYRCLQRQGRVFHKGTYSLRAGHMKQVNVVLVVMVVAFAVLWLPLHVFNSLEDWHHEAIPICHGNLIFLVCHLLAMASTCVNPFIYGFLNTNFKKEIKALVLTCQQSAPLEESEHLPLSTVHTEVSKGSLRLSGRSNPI

A word on the Kd: it is a measure of binding affinity in units of concentration. High values mean weaker binding, low ones tighter binding. With “IKPEAPGEDASPEAHLANEVARLHYLNLVTRQRY-NH2 [PYY_helicar]”, at NPY4R, the NPY4R result was “in-”. Also, on NPY5R, the NPY5R result is given as “in-”. The same molecule showed a Kd in series [1] of 0.012 µM. The molecule further returned an NPY2R on NPY2R of 6.38 nM.
“Biotin-O2Oc-Ser-O2Oc-DADOO-Cy5 [Biotin-Cy5]”: the “serum half-life and exposure levels” value in series [2] was “eliminated with a low serum half-life and low exposure levels”.
“Ac-Ile-Lys-Pqa-Arg-His-Tyr-Leu-Asn-Trp-Val-Thr-Arg-Gln-(NMe)-Arg-Try-NH2 * 4 HOAc (Ac-IK[Pqa]RHYLNWVTRQ[NMeR]Y-NH2; also: 4 HOAc salt)”: the NPY4R result in the series with NPY4R is on record as “in-”. Further, the NPY5R result in the series with NPY5R was “in-”. In the series with NPY2R, the NPY2R came out at 1.0 nM. Moreover, the NPY1R result with NPY1R is “in-”.
Turning to `CC[C@H](C)[C@H](NC(C)=O)C(=O)N[C@@H](CCCCNC(=O)CCOCCOCCOCCNC(=O)CO[C@H]1CC[C@@]2(C)[C@H](CC[C@@H]3[C@@H]2C[C@@H](O)[C@]2(C)[C@@H](C4=CC(=O)OC4)CC[C@]32O)C1)C(=O)N1CCN(c2ccc3ncn(CC(=O)N[C@@H](CCCNC(=N)N)C(=O)N[C@@H](Cc4c[nH]cn4)C(=O)N[C@@H](Cc4ccc(O)cc4)C(=O)N[C@@H](CC(C)C)C(=O)N[C@@H](CC(N)=O)C(=O)N[C@@H](Cc4c[nH]c5ccccc45)C(=O)N[C@H](C(=O)N[C@H](C(=O)N[C@@H](CCCNC(=N)N)C(=O)N[C@@H](CCC(N)=O)C(=O)N(C)[C@@H](CCCNC(=N)N)C(=O)N[C@@H](Cc4ccc(O)cc4)C(N)=O)[C@@H](C)O)C(C)C)c(=O)c3c2)CC1` [Ac-PYY(PEG3-Dig)], the “presence/amount of the digoxigenin polypeptide in murine serum” value in series [3] was “barely any signal associable to the small polypeptide was detectable even at the earliest time point; also recorded: very short half-life in the serum of mice”.
